Our source for the TGI values is PubChem BioAssay (NCI).

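How tested: cells in 96-well plates exposed to compound for 48 hours at five concentrations. TGI: total growth inhibition.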

Experiment in all cases: NCI anticancer screen, dose series, 48 h
Test [1] concerns DU-145 prostate.
The subject of test [2] is T-47D breast.
Test [3] concerns TK-10 renal.
Test [4] has as its system EKVX NSCLC.
Test [5] relates to SK-OV-3 ovarian.
Test [6] deals with SK-MEL-5 melanoma.
Test [7] relates to CAKI-1 renal.
The subject of test [8] is PC-3 prostate.
Test [9] has as its system HOP-92 NSCLC.
The subject of test [10] is SK-MEL-2 melanoma.

For the compound `NC1CC(=O)c2sccc21` (stereo unspecified), the TGI in test [1], in test [2], in [3], in [4], in test [5] and in [6] was over 100 µM in each case. The TGI in [7] was over 100 µM; in test [8] it was over 100 µM; in test [9] it was over 100 µM; in test [10], 79.3 µM.
For `CC(C)OC(=O)[C@@H](O)[C@H](CO)C1=CC([Si](C)(C)c2ccccc2)=CON1`, the TGI in test [1], in test [2], in test [3], in [4], in [5] and in test [6] was over 100 µM throughout. Moreover, the TGI in [7], in test [8] and in [10] was over 100 µM in each case.
With `O=C1C(NCCN2CCOCC2)=C(Cl)C(=O)c2ncccc21`, the TGI was 2.17 µM in test [1]; 3.14 µM in [2]; 2.78 µM in test [3]; 2.79 µM in test [4]; 2.73 µM in [5]; 1.1 µM in test [6]. In addition, the TGI in test [8] was 1.95 µM; in test [9] it was 5.76 µM; in test [10], 1.11 µM.
For the compound `Cc1ccc(S(=O)(=O)NC(=O)NC(Cc2ccc(O)c(O)c2)C(=O)O)cc1` (stereo unspecified), the TGI in test [1], in test [2], in test [3], in test [4], in test [6] and in test [7] was over 100 µM each time. For the same compound, the TGI in test [8], in test [9] and in [10] was over 100 µM in each case.
Regarding `Nn1c(Cc2ccccc2)n[nH]c1=O`, the TGI in [1], in test [2], in test [3], in [4], in test [5] and in test [6] was over 100 µM throughout. Further, the TGI in test [7], in [8] and in test [10] was over 100 µM in each case.
On to `Cc1ccc(C(=O)Nc2ccc(S(=O)(=O)O)c3cc(S(=O)(=O)O)cc(S(=O)(=O)O)c23)cc1NC(=O)c1cccc(NC(=O)Nc2cccc(C(=O)Nc3cc(C(=O)Nc4ccc(S(=O)(=O)O)c5cc(S(=O)(=O)O)cc(S(=O)(=O)O)c45)ccc3C)c2)c1` (tested in a mixture with another compound), for which the TGI in [1], in [2], in test [4], in test [5], in [6] and in test [7] was over 50 µM in each case. Also, the TGI in test [8], in [9] and in [10] was over 50 µM in each case.
In the case of `COc1ccc(Oc2nc(C#CC(C)(C)O)nc(Oc3ccc(OC)cc3)n2)cc1`, the TGI in [1] is 7.16 µM; in [2], over 100 µM; in test [3], 25.5 µM; in test [4], 30.7 µM; in [5] it was 36 µM; in test [6], 27.8 µM. Also, the TGI in test [7] was found to be 12.5 µM; in [8], 7.69 µM; in test [10] it was 22.8 µM.
Regarding `CC(NC(C#N)CC12CC3CC(CC(C3)C1)C2)c1ccccc1` (stereo unspecified), the TGI in [1], in test [2], in test [3], in test [4], in test [5] and in test [6] was over 100 µM throughout. Further, the TGI in [7] was over 100 µM; in test [8] it was over 100 µM; in test [9], 31.5 µM.
As to `O=C(N/N=C\c1ccccc1)Nc1cccc2ccccc12`, the TGI in test [1] is over 100 µM; in test [2] it was 48.2 µM; in [3] it was over 100 µM; in test [4] it was over 100 µM; in test [6], 24.4 µM; in [7], over 100 µM. The TGI in test [8] is 86.5 µM; in test [9], over 100 µM; in [10] it was 95.3 µM.
As for `c1ccc(C(CCN2CC3CCC(CC3)C2)c2ccccc2)cc1`, the TGI in [1] was over 100 µM; in test [2], 49.1 µM; in test [3], 72.7 µM; in test [4] it was over 100 µM; in [6] it was 30.1 µM; in test [7], over 100 µM. For the same compound, the TGI is over 100 µM in test [8], 64.4 µM in [9] and 37.8 µM in test [10].
Take `CCN(CC)C(=O)N1CN(c2ccccc2)C2(CCN(CCCSc3ccc(F)cc3)CC2)C1=O`: the TGI in test [1] amounted to 40.7 µM; in test [2], 47.1 µM; in [3], 31.5 µM; in test [4], 33.6 µM; in test [5], 63 µM; in test [6] it was 12.3 µM. Moreover, the figures for the TGI in [7], in test [8] and in test [10] were over 100 µM, 36.5 µM and 21 µM, respectively.
Take `Cc1nc2ccccc2n1Cc1nnc(N)o1`: the TGI in test [1], in [2], in test [3], in test [4], in test [5] and in test [6] was over 100 µM in each case. In addition, the TGI in test [8], in test [9] and in test [10] was over 100 µM each time.
With `CC(=O)N1c2ccccc2C(C)C1c1[nH]c2ccccc2c1C` (stereo unspecified), the TGI is over 100 µM in [1]; 91.5 µM in [2]; 76.1 µM in test [3]; over 100 µM in test [4]; 43.9 µM in test [5]; 28.3 µM in test [6]. Further, the TGI is 70.6 µM in [7], over 100 µM in test [8] and 40.2 µM in test [10].
Consider `COc1ccc(/C=N/NC(=O)c2cnc3[nH]c(=O)n(C)c(=O)c3c2)cc1`, for which the TGI in [1], in [2], in [3], in test [4], in [5] and in test [6] was over 100 µM in each case. Moreover, the TGI in test [7], in test [8] and in [10] was over 100 µM throughout.
As to `CC1(C)CC2(C)CC1CC2NC(=O)CCN1CCOCC1` (stereo unspecified), the TGI in test [1], in test [2], in [3], in [4], in test [5] and in test [6] was over 100 µM throughout. Besides, the TGI in [7], in [8] and in [9] was over 100 µM each time.
